Literature values in US20260209864A1, “METHOD FOR DETERMINING AND IMPROVING THE POTENTIAL EFFICACY OF ANTICANCER TREATMENT” (ASSISTANCE PUBLIQUE - HOPITAUX DE PARIS, priority 2022, published 2026).

Legend:
[1] = after lung transplantation
[2] = test system: hematological malignancies; conditions: early administration during allo-HSCT

CC[C@H]1OC(=O)[C@H](C)[C@@H](O[C@H]2C[C@@](C)(OC)[C@@H](O)[C@H](C)O2)[C@H](C)[C@@H](O[C@@H]2O[C@H](C)C[C@H](N(C)C)[C@H]2O)[C@](C)(O)C[C@@H](C)CN(C)[C@H](C)[C@@H](O)[C@]1(C)O [azithromycin]
prevention of BOS [1]: prevents BOS | risk of hematological malignancies relapses [2]: unexpectedly increased risk
